As usually defined, the Kd is a measure of binding affinity in units of concentration. Lower therefore signals a tighter complex.

These results are taken from paper PMC11887843 (Science Advances, 2024).

For experiment [1], the target named is T1, AcCARD (uncharacterized CARD-containing protein) (Amphilophus citrinellus, UniProt A0A3Q0SFM2).
T1 sequence (A0A3Q0SFM2 1-92): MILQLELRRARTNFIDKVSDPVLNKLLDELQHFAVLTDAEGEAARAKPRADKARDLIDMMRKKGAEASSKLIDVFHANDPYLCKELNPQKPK
The experiment is described as follows: limited trypsin digestion and blue native PAGE in […] lysates. Type of experiment: cell-based.

Experiment [2] concerns the target T2, caspase-11 (Mus musculus, UniProt P70343).
T2 sequence (P70343 1-80): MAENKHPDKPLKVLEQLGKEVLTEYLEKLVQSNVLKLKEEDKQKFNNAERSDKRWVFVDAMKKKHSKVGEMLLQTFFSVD
The experiment in a line: microscale thermophoresis. Type of experiment: binding.

In experiment [3] the target is T2, caspase-11. The experiment is described as follows: microscale thermophoresis. In kind it is binding. This is another data set of the same source.

Where two headings read alike, the source gives them in different places.

`CCCCCCCCCCCCCCCC(=O)OC[C@H](COP(=O)([O-])OCC[N+](C)(C)C)OC(=O)CCCC(=O)O` [PGPC]: in experiment [1], the “limited trypsin digestion and blue native PAGE in 293T lysates” value was “we found that AcCARD binds PGPC in both native PAGE and limited trypsin digestion assays”. For the same compound, at caspase-11 [2], the Kd was around 15 µM.

As to `CCCCCCCCCCCCCCCC(=O)OC[C@@H](O)COP(=O)([O-])OCC[N+](C)(C)C` [16:0 LysoPC, 1-palmitoyl-2-hydroxy-sn-glycero-3-phosphocholine], the Kd on caspase-11 [3] is around 10 µM.
